Structures can show the parent of a compound that is named as a salt.

T1 sequence (P23791 whole entry): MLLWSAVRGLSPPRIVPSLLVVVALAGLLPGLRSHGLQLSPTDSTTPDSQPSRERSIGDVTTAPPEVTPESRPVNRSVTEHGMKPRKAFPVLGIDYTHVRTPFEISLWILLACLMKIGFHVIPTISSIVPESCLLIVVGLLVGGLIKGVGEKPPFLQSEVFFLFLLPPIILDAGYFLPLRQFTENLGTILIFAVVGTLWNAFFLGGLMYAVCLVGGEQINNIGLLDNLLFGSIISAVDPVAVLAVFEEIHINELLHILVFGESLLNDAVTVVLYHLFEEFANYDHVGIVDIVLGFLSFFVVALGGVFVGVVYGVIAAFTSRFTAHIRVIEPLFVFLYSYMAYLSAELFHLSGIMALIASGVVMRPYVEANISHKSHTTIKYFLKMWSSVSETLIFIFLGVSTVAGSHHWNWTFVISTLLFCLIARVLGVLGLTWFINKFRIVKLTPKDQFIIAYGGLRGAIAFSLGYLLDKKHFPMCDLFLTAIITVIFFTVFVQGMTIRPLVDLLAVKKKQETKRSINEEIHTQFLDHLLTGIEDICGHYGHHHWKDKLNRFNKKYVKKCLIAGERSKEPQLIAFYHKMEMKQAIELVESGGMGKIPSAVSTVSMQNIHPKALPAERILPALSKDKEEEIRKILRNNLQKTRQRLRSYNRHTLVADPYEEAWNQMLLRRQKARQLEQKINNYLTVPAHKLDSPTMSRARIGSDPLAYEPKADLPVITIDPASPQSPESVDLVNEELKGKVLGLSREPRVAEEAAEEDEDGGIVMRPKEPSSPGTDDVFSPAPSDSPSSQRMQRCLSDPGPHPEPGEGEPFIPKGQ

The experiment concerns the target T1, Na^+/H^+-Exchangers von Kaninchenerythrocyten (Oryctolagus cuniculus, UniProt P23791).
T1 construct: den Na^+-Influx in die Erythrocyten via Na^+/H^+-Austausch flammenphotometrisch bestimmen zu können; from tissue; host or cells: Erythrocytes from ear-artery blood of cholesterol-fed New Zealand White rabbits
The experiment can be described thus: Inhibition of the Na+/H+ exchanger of rabbit erythrocytes (amiloride-sensitive sodium influx, flame photometry). The class given is cell-based, Kaninchen. As to conditions: hyperosmolar salt-sucrose medium, pH 7,4, 37°C, read-out: IC50 Inhibition des Na^+/H^+-Exchangers. The source says:
Inhibition des Na^+/H^+-Exchangers von Kaninchenerythrocyten Weiße Neuseeland-Kaninchen (Ivanovas) erhielten eine Standard-Diät mit 2% Cholesterin für sechs Wochen, um den Na^+/H^+-Austausch zu aktivieren und so den Na^+-Influx in die Erythrocyten via Na^+/H^+-Austausch flammenphotometrisch bestimmen zu können. Das Blut wurde den Ohrarterien entnommen und durch 25 IE Kalium-Heparin ungerinnbar gemacht. Ein Teil jeder Probe wurde zur Doppelbestimmung des Hämatokrits durch Zentrifugieren benutzt. Aliquots von jeweils 100 µl dienten zur Messung des Na^+-Ausgangsgehalts der Erythrocyten.
Um den Amilorid-sensitiven Natrium-Influx zu bestimmen, wurden 100 µl jeder Blutprobe in jeweils 5 ml eines hyperosmolaren Salz-Sucrose-Mediums (mmol/l: 140 NaCl, 3 KCl, 150 Sucrose, 0,1 Ouabain, 20 Tris-hydroxymethylaminomethan) bei pH 7,4 und 37°C inkubiert. Die Erythrocyten wurden danach dreimal mit eiskalter MgCl2-Ouabain-Lösung (mmol/l: 112 MgCl2, 0,1 Ouabain) gewaschen und in 2,0 ml destilliertem Wasser hämolysiert. Der intrazelluläre Natriumgehalt wurde flammenphotometrisch bestimmt.
Der Na^+-Nettoinflux wurde aus der Differenz zwischen Natrium-Ausgangswerten und dem Natriumgehalt der Erythrocyten nach Inkubation errechnet. Der Amilorid-hemmbare Natrium-Influx ergab sich aus der Differenz des Natriumgehalts der Erythrocyten nach Inkubation mit und ohne Amilorid 3 x 10^-4 mol/l. Auf diese Weise wurde auch bei den erfindungsgemäßen Verbindungen verfahren.
As to `N=C(N)NC(=O)c1c(Cl)cccc1Cl` [Beispiel 1, 2,6-Dichlor-benzoylguanidin-hydrochlorid], the IC50 was 10 µM.

With `COc1ccc(Cl)c(OC)c1C(=O)N=C(N)N` [Beispiel 2, 3-Chlor-2,6-dimethoxy-benzoylguanidin-hydrochlorid], the IC50 was 8.5 µM.

On to `NC(N)=NC(=O)c1c(F)c(F)c(O)c(F)c1F` [Beispiel 3, 4-Hydroxy-2,3,5,6-tetrafluor-benzoylguanidin-hydrochlorid], for which the IC50 was 0.3 µM.

For `NC(N)=NC(=O)c1c(F)cccc1F` [Beispiel 4, 2,6-Difluor-benzoylguanidin-hydrochlorid], the IC50 was more than 10 µM.

In the case of `NC(N)=NC(=O)c1c(F)cccc1C(F)(F)F` [Beispiel 5, 2-Fluor-6-trifluormethyl-benzoylguanidin-hydrochlorid], the IC50 came out at 10 µM.

With `COc1ccc(C(F)(F)F)c(OC)c1C(=O)N=C(N)N` [Beispiel 6, 3-Trifluormethyl-2,6-dimethoxy-benzoylguanidin-hydrochlorid], the IC50 was more than 10 µM.

Values taken from EP0810207A1, “Bis-ortho-substituted benzoylguanidines, process for their preparation, their use as medicament or diagnostic agent and medicaments containing them” (HOECHST AKTIENGESELLSCHAFT, priority 1996, dated 1997).
